Columns and labels:
Type in all cases: in vivo
[1] = test system: velvetleaf (Abutilon theophrasti); experiment: Test A pre-/postemergence plant response
How it was run: (§1)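 Each species was treated preemergence via directed soil spray and postemergence at the one- to two-leaf stage, with compounds formulated in a non-phytotoxic solvent plus surfactant. Visual injury relative to untreated controls was rated after about ten days on a 0–100 scale.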

[2] = test system: morningglory (Ipomoea spp.); experiment: Test A pre-/postemergence plant response
How it was run: as §1

corn (Zea mays) = experiment: Test A pre-/postemergence plant response; conditions: for Corn plant response rating: visual injury, 0 to 100 scale (0 no effect, 100 complete control), approx. ten days
How it was run: as §1

[3] = test system: wheat (Triticum aestivum); experiment: Test A pre-/postemergence plant response
How it was run: as §1

[4] = test system: large crabgrass (Digitaria sanguinalis); experiment: Test A pre-/postemergence plant response; conditions: for Crabgrass, Large plant response rating: visual injury, 0 to 100 scale (0 no effect, 100 complete control), approx. ten days
How it was run: as §1

[5] = test system: pigweed (Amaranthus retroflexus); experiment: Test A pre-/postemergence plant response
How it was run: as §1

[6] = test system: barnyardgrass (Echinochloa crus-galli); experiment: Test A pre-/postemergence plant response; conditions: for Barnyardgrass plant response rating: visual injury, 0 to 100 scale (0 no effect, 100 complete control), approx. ten days
How it was run: as §1

[7] = test system: giant foxtail (Setaria faberii); experiment: Test A pre-/postemergence plant response
How it was run: as §1

[8] = test system: umbrella sedge (Cyperus difformis); experiment: Test B flooded paddy test; conditions: for Plant response rating, Flood, Sedge, Umbrella: 250 g ai/ha, flooded paddy test, visual rating on 0 to 100 scale (0 no effect, 100 complete control) after 13 to 15 days; for Plant response rating, Sedge, Umbrella: Flood (flooded paddy test), 13 to 15 days; for Sedge, Umbrella plant response rating: Flood, 31 g ai/ha, scale 0 to 100 (0 no effect, 100 complete control)
How it was run: (§2)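 Post-flood paddy application: compounds are introduced into water 3 cm deep over the soil, reaching plants at the 2-leaf stage. The water level is maintained, and after 13–15 days under greenhouse conditions, response is judged by eye relative to controls, where 100 means complete control.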

[9] = test system: ducksalad (Heteranthera limosa); experiment: Test B flooded paddy test; conditions: for Plant response rating, Flood, Ducksalad: 250 g ai/ha, flooded paddy test, visual rating on 0 to 100 scale (0 no effect, 100 complete control) after 13 to 15 days; for Plant response rating, Ducksalad: Flood (flooded paddy test), 13 to 15 days; for Ducksalad plant response rating: Flood, 31 g ai/ha, scale 0 to 100 (0 no effect, 100 complete control)
How it was run: as §2

rice (Oryza sativa) = experiment: Test B flooded paddy test; conditions: for Plant response rating, Flood, Rice: 250 g ai/ha, flooded paddy test, visual rating on 0 to 100 scale (0 no effect, 100 complete control) after 13 to 15 days; for Plant response rating, Rice: Flood (flooded paddy test), 13 to 15 days; for Rice plant response rating: Flood, 31 g ai/ha, scale 0 to 100 (0 no effect, 100 complete control)
How it was run: as §2

[10] = test system: barnyardgrass (Echinochloa crus-galli); experiment: Test B flooded paddy test; conditions: for Plant response rating, Flood, Barnyardgrass: 250 g ai/ha, flooded paddy test, visual rating on 0 to 100 scale (0 no effect, 100 complete control) after 13 to 15 days; for Plant response rating, Barnyardgrass: Flood (flooded paddy test), 13 to 15 days; for Barnyardgrass plant response rating: Flood, 31 g ai/ha, scale 0 to 100 (0 no effect, 100 complete control)
How it was run: as §2

[11] = Postemergence, 125 g ai/ha, 0 to 100 scale where 0 is no effect and 100 is complete control
[12] = Postemergence, 500 g ai/ha, visual injury, 0 to 100 scale (0 no effect, 100 complete control), approx. ten days
[13] = Preemergence, 125 g ai/ha, 0 to 100 scale, 0 = no effect, 100 = complete control
[14] = Preemergence, 500 g ai/ha, 0 to 100 scale, 0 = no effect, 100 = complete control
[15] = 62 g ai/ha, scale of 0 to 100 where 0 is no effect and 100 is complete control
[16] = Postemergence, 125 g ai/ha, visual injury, 0 to 100 scale (0 no effect, 100 complete control), approx. ten days
[17] = Preemergence, 125 g ai/ha, 0 to 100 scale where 0 is no effect and 100 is complete control, approximately ten days
[18] = 125 g ai/ha, scale 0 to 100, 0 is no effect, 100 is complete control

Cc1ccc(C)c(-n2c(-c3ccccc3)ncc(C(=O)c3cnoc3C3CC3)c2=O)c1 [Compound 222]
20: Plant response rating, Crabgrass, Large [4, 13] | Plant response rating, Crabgrass, Large [4, 14]
10: Plant response rating, Barnyardgrass [6, 11]
50: Plant response rating, Ducksalad [9, 15]
80: Barnyardgrass plant response rating ([6]; Postemergence, 500 g ai/ha)
60: Plant response rating, Velvetleaf [1, 11] | Plant response rating, Velvetleaf [1, 14] | Plant response rating, Barnyardgrass [6, 14] | Plant response rating, Foxtail, Giant [7, 14]
40: Morningglory plant response rating [2, 12] | Plant response rating, Morningglory [2, 14] | Plant response rating, Pigweed [5, 11] | Foxtail, Giant plant response rating [7, 12] | Plant response rating, Flood, Sedge, Umbrella [8]
90: Velvetleaf plant response rating [1, 12]
0: Plant response rating, Velvetleaf [1, 13] | Plant response rating, Morningglory [2, 13] | Plant response rating, Corn (corn (Zea mays); [11]) | Corn plant response rating (corn (Zea mays); Postemergence, 500 g ai/ha) | Plant response rating, Corn (corn (Zea mays); [13]) | Plant response rating, Corn (corn (Zea mays); [14]) | Plant response rating, Wheat [3, 11] | Wheat plant response rating [3, 12] | Plant response rating, Wheat [3, 13] | Plant response rating, Wheat [3, 14] | Plant response rating, Crabgrass, Large [4, 11] | Plant response rating, Pigweed [5, 13] | Plant response rating, Pigweed [5, 14] | Plant response rating, Barnyardgrass [6, 13] | Plant response rating, Foxtail, Giant [7, 11] | Plant response rating, Flood, Rice (rice (Oryza sativa)) | Plant response rating, Rice (rice (Oryza sativa); [15]) | Plant response rating, Flood, Barnyardgrass [10] | Plant response rating, Barnyardgrass [10, 15]
70: Pigweed plant response rating [5, 12]
65: Plant response rating, Flood, Ducksalad [9]
30: Plant response rating, Morningglory [2, 11] | Crabgrass, Large plant response rating ([4]; Postemergence, 500 g ai/ha) | Plant response rating, Foxtail, Giant [7, 13] | Plant response rating, Sedge, Umbrella [8, 15]

CCn1c(-c2cccc(C)c2)ncc(C(=O)C2=C(O)C3CCC(C3)C2=O)c1=O (centres unmarked) [Compound 231]
90: Plant response rating, Velvetleaf [1, 11] | Plant response rating, Morningglory [2, 11] | Plant response rating, Crabgrass, Large [4, 14] | Pigweed plant response rating [5, 12] | Barnyardgrass plant response rating ([6]; Postemergence, 500 g ai/ha)
0: Plant response rating, Corn (corn (Zea mays); [11]) | Plant response rating, Corn (corn (Zea mays); [13]) | Plant response rating, Wheat [3, 11] | Wheat plant response rating [3, 12] | Plant response rating, Wheat [3, 13] | Plant response rating, Wheat [3, 14] | Plant response rating, Barnyardgrass [6, 13] | Plant response rating, Foxtail, Giant [7, 13] | Plant response rating, Sedge, Umbrella [8, 15] | Plant response rating, Flood, Ducksalad [9] | Plant response rating, Ducksalad [9, 15] | Plant response rating, Flood, Rice (rice (Oryza sativa)) | Plant response rating, Rice (rice (Oryza sativa); [15])
70: Crabgrass, Large plant response rating ([4]; Postemergence, 500 g ai/ha) | Plant response rating, Barnyardgrass [6, 11]
50: Plant response rating, Velvetleaf [1, 13] | Plant response rating, Crabgrass, Large [4, 11] | Plant response rating, Pigweed [5, 13]
20: Plant response rating, Corn (corn (Zea mays); [14])
100: Velvetleaf plant response rating [1, 12] | Morningglory plant response rating [2, 12]
80: Plant response rating, Morningglory [2, 14] | Plant response rating, Pigweed [5, 11] | Plant response rating, Pigweed [5, 14] | Foxtail, Giant plant response rating [7, 12]
60: Plant response rating, Velvetleaf [1, 14] | Plant response rating, Barnyardgrass [6, 14] | Plant response rating, Foxtail, Giant [7, 11] | Plant response rating, Foxtail, Giant [7, 14]
40: Corn plant response rating (corn (Zea mays); Postemergence, 500 g ai/ha) | Plant response rating, Crabgrass, Large [4, 13] | Plant response rating, Flood, Barnyardgrass [10] | Plant response rating, Barnyardgrass [10, 15]
75: Plant response rating, Flood, Sedge, Umbrella [8]
10: Plant response rating, Morningglory [2, 13]

O=C(C1=C(O)C2CCC(C2)C1=O)c1cnc(-c2ccccc2)n(C2CCCCC2)c1=O (centres unmarked) [Compound 248]
70: Plant response rating, Crabgrass, Large [4, 14]
40: Plant response rating, Morningglory [2, 14] | Plant response rating, Pigweed [5, 14] | Plant response rating, Flood, Barnyardgrass [10]
60: Plant response rating, Velvetleaf [1, 14]
75: Plant response rating, Sedge, Umbrella [8, 18] | Ducksalad plant response rating [9]
20: Plant response rating, Velvetleaf [1, 17] | Plant response rating, Corn (corn (Zea mays); [14]) | Plant response rating, Wheat [3, 14] | Plant response rating, Foxtail, Giant [7, 14]
80: Crabgrass, Large plant response rating ([4]; Postemergence, 500 g ai/ha) | Plant response rating, Pigweed [5, 16] | Plant response rating, Ducksalad [9, 15] | Plant response rating, Ducksalad [9, 18]
90: Pigweed plant response rating [5, 12] | Plant response rating, Barnyardgrass [6, 11] | Plant response rating, Flood, Ducksalad [9]
65: Plant response rating, Sedge, Umbrella [8, 15]
50: Plant response rating, Crabgrass, Large [4, 11] | Plant response rating, Foxtail, Giant [7, 16] | Sedge, Umbrella plant response rating [8]
85: Plant response rating, Flood, Sedge, Umbrella [8]
0: Plant response rating, Morningglory [2, 17] | Plant response rating, Corn (corn (Zea mays); [11]) | Plant response rating, Corn (corn (Zea mays); [17]) | Plant response rating, Wheat [3, 16] | Wheat plant response rating [3, 12] | Plant response rating, Wheat [3, 17] | Plant response rating, Pigweed [5, 17] | Plant response rating, Barnyardgrass [6, 17] | Plant response rating, Flood, Rice (rice (Oryza sativa)) | Plant response rating, Rice (rice (Oryza sativa); [15]) | Plant response rating, Rice (rice (Oryza sativa); [18]) | Rice plant response rating (rice (Oryza sativa)) | Plant response rating, Barnyardgrass [10, 15] | Plant response rating, Barnyardgrass [10, 18] | Barnyardgrass plant response rating [10]
30: Corn plant response rating (corn (Zea mays); Postemergence, 500 g ai/ha) | Plant response rating, Barnyardgrass [6, 14]
100: Plant response rating, Velvetleaf [1, 16] | Velvetleaf plant response rating [1, 12] | Plant response rating, Morningglory [2, 16] | Morningglory plant response rating [2, 12] | Barnyardgrass plant response rating ([6]; Postemergence, 500 g ai/ha) | Foxtail, Giant plant response rating [7, 12]
10: Plant response rating, Crabgrass, Large [4, 17] | Plant response rating, Foxtail, Giant [7, 17]

O=C(C1=C(O)C2CCC(C2)C1=O)c1cnc(-c2cc(F)c(F)c(F)c2)n(C2CCCCC2)c1=O (centres unmarked) [Compound 251]
60: Plant response rating, Pigweed [5, 14]
75: Plant response rating, Flood, Sedge, Umbrella [8]
0: Plant response rating, Morningglory [2, 17] | Plant response rating, Corn (corn (Zea mays); [11]) | Plant response rating, Corn (corn (Zea mays); [17]) | Plant response rating, Corn (corn (Zea mays); [14]) | Plant response rating, Wheat [3, 16] | Plant response rating, Wheat [3, 17] | Plant response rating, Wheat [3, 14] | Plant response rating, Pigweed [5, 17] | Plant response rating, Barnyardgrass [6, 17] | Sedge, Umbrella plant response rating [8] | Plant response rating, Ducksalad [9, 15] | Ducksalad plant response rating [9] | Plant response rating, Rice (rice (Oryza sativa); [15]) | Plant response rating, Rice (rice (Oryza sativa); [18]) | Rice plant response rating (rice (Oryza sativa)) | Plant response rating, Barnyardgrass [10, 15] | Plant response rating, Barnyardgrass [10, 18] | Barnyardgrass plant response rating [10]
50: Plant response rating, Velvetleaf [1, 17] | Plant response rating, Crabgrass, Large [4, 11] | Plant response rating, Foxtail, Giant [7, 16] | Plant response rating, Sedge, Umbrella [8, 15] | Plant response rating, Ducksalad [9, 18]
65: Plant response rating, Sedge, Umbrella [8, 18]
10: Wheat plant response rating [3, 12] | Plant response rating, Foxtail, Giant [7, 17] | Plant response rating, Flood, Rice (rice (Oryza sativa))
100: Plant response rating, Velvetleaf [1, 16] | Velvetleaf plant response rating [1, 12] | Plant response rating, Morningglory [2, 16] | Morningglory plant response rating [2, 12] | Barnyardgrass plant response rating ([6]; Postemergence, 500 g ai/ha)
20: Corn plant response rating (corn (Zea mays); Postemergence, 500 g ai/ha) | Plant response rating, Crabgrass, Large [4, 17] | Plant response rating, Barnyardgrass [6, 14] | Plant response rating, Flood, Barnyardgrass [10]
70: Plant response rating, Velvetleaf [1, 14] | Plant response rating, Pigweed [5, 16]
40: Plant response rating, Morningglory [2, 14] | Plant response rating, Foxtail, Giant [7, 14]
90: Crabgrass, Large plant response rating ([4]; Postemergence, 500 g ai/ha) | Foxtail, Giant plant response rating [7, 12]
80: Plant response rating, Crabgrass, Large [4, 14] | Pigweed plant response rating [5, 12] | Plant response rating, Barnyardgrass [6, 11] | Plant response rating, Flood, Ducksalad [9]
